The results in this text go back to patent publication US20240400555A1 (Initial Therapeutics, Inc., priority 2023, published 2024).

In general, IC50 refers to the midpoint of a concentration-inhibition curve.

One assay relates to MV-4-11 cells. The assay is described as follows: Cell Viability Assay in MV-4-11 Cells. The format is cell-based. The conditions noted are these: Homo sapiens, MV4-11, 72 h. The method, boiled down:
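Luminescent ATP read-out (CellTiter-Glo) after 72 h compound treatment of MV-4-11 leukaemia cells (7,000 per well, IMDM plus 10% FBS). Values expressed relative to DMSO control and derived by four-parameter non-linear regression.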
`C=C(C)c1csc2ccnc(N(C(=O)c3ccc(-c4cn(C)nn4)cc3F)[C@@H]3CCCNC3)c12` [Example 842, (R)-2-fluoro-4-(1-methyl-1H-1,2,3-triazol-4-yl)-N-(piperidin-3-yl)-N-(3-(prop-1-en-2-yl)thieno[3,2-c]pyridin-4-yl)benzamide]: the IC50 was 270 nM.

The same assay, now with this note: Homo sapiens, MV4-11, 72 h, MV-4-11 cells, 72 h, Cell-Titer Glo; read-out: IC50.
In the case of `Cn1cc(-c2ccc(C(=O)N(c3nccc4sc(-c5ccc(C(N)=O)cc5)cc34)[C@@H]3CCCNC3)c(F)c2)nn1` [Example 840, N-[2-(4-carbamoylphenyl)thieno[3,2-c]pyridin-4-yl]-2-fluoro-4-(1-methyltriazol-4-yl)-N-[(3R)-3-piperidyl] benzamide], the IC50 was 1200 nM.
Take `Cc1csc2ccnc(N(C(=O)c3ccc(-c4cn(C)nn4)cc3F)[C@@H]3CCCNC3)c12` [Example 841, (R)-2-fluoro-4-(1-methyl-1H-1,2,3-triazol-4-yl)-N-(3-methylthieno[3,2-c]pyridin-4-yl)-N-(piperidin-3-yl)benzamide]: the IC50 was determined as 75 nM.
For the compound `Cc1cccc2ccnc(N(C(=O)c3ccc(Nc4ccccn4)nc3)[C@@H]3CCCNC3)c12` [Example 843, (R)—N-(8-methylisoquinolin-1-yl)-N-(piperidin-3-yl)-6-(pyridin-2-ylamino)nicotinamide], the IC50 amounted to 2200 nM.
Regarding `O=C(c1ccc(-n2nnc3cccnc32)cc1F)N(c1nccc2sc(C#CCCCO)cc12)[C@@H]1CCCNC1` [Example 844, (R)-4-(3H-[1,2,3]triazolo[4,5-b]pyridin-3-yl)-2-fluoro-N-(2-(5-hydroxypent-1-yn-1-yl)thieno[3,2-c]pyridin-4-yl)-N-(piperidin-3-yl)benzamide], the IC50 came out at 600 nM.
Still for that read-out and setting: to `Cc1cc(-c2cnn(C)c2)cc2ccnc(N(C(=O)c3ccc(-c4cn(C)nn4)cc3F)[C@@H]3CCCNC3)c12` [Example 845, 2-fluoro-N-[8-methyl-6-(1-methylpyrazol-4-yl)-1-isoquinolyl]-4-(1-methyltriazol-4-yl)-N-[(3R)-3-piperidyl]benzamide] belongs 69 nM; to `Cc1cccc2ccnc(N(C(=O)c3ccc(Nc4ncccn4)nc3)[C@@H]3CCCNC3)c12` [Example 846, (R)—N-(8-methylisoquinolin-1-yl)-N-(piperidin-3-yl)-6-(pyrimidin-2-ylamino)nicotinamide], 420 nM; to `Cc1cccc2ccnc(N(C(=O)c3ccc(Nc4ncccn4)c(Cl)c3)[C@@H]3CCCNC3)c12` [Example 847, (R)-3-chloro-N-(8-methylisoquinolin-1-yl)-N-(piperidin-3-yl)-4-(pyrimidin-2-ylamino)benzamide], 2000 nM.
Same read-out and setting: the value for `Cc1cccc2ccnc(N(C(=O)c3ccc(Nc4nccc(N)n4)cc3F)[C@@H]3CCCNC3)c12` [Example 848, (R)-4-((4-aminopyrimidin-2-yl)amino)-2-fluoro-N-(8-methylisoquinolin-1-yl)-N-(piperidin-3-yl)benzamide] was 260 nM.
In the case of `O=C(c1ccc(-n2nnc3cccnc32)cc1F)N(c1nccc2cnccc12)[C@@H]1CCCNC1` [Example 849, (R)-4-(3H-[1,2,3]triazolo[4,5-b]pyridin-3-yl)-2-fluoro-N-(2,6-naphthyridin-1-yl)-N-(piperidin-3-yl)benzamide], the IC50 turned out to be 2600 nM.
On the same count and under the same terms, the value for `COCCn1cc(-c2ccc(C(=O)N(c3nccc4cc(F)cc(C)c34)[C@@H]3CCCNC3)c(F)c2)nn1` [Example 850, 2-fluoro-N-(6-fluoro-8-methyl-1-isoquinolyl)-4-[1-(2-methoxyethyl)triazol-4-yl]-N-[(3R)-3-piperidyl]benzamide] was 52 nM; that for `COCc1c(-c2ccc(C(=O)N(c3nccc4scc(C)c34)[C@@H]3CCCNC3)c(F)c2)nnn1C` [Example 851, 2-fluoro-4-[5-(methoxymethyl)-1-methyl-triazol-4-yl]-N-(3-methylthieno[3,2-c]pyridin-4-yl)-N-[(3R)-3-piperidyl]benzamide] was 61 nM; that for `COCCc1nnc(-c2ccc(C(=O)N(c3nccc4cc(F)cc(C)c34)[C@@H]3CCCNC3)c(F)c2)s1` [Example 852, 2-fluoro-N-(6-fluoro-8-methyl-1-isoquinolyl)-4-[5-(2-methoxyethyl)-1,3,4-thiadiazol-2-yl]-N-[(3R)-3-piperidyl]benzamide] was 56 nM.
As for `COCc1nnc(-c2ccc(C(=O)N(c3nccc4cc(F)cc(C)c34)[C@@H]3CCCNC3)c(F)c2)s1` [Example 853, 2-fluoro-N-(6-fluoro-8-methyl-1-isoquinolyl)-4-[5-(methoxymethyl)-1,3,4-thiadiazol-2-yl]-N-[(3R)-3-piperidyl]benzamide], the IC50 stood at 55 nM.
With `CCOCc1nnc(-c2ccc(C(=O)N(c3nccc4cc(F)cc(C)c34)[C@@H]3CCCNC3)c(F)c2)s1` [Example 854, 4-[5-(ethoxymethyl)-1,3,4-thiadiazol-2-yl]-2-fluoro-N-(6-fluoro-8-methyl-1-isoquinolyl)-N-[(3R)-3-piperidyl]benzamide], the IC50 came to 80 nM.
Take `Cc1ccc(Cl)c2ccnc(N(C(=O)c3ccc(-c4cn(C)nn4)cc3)[C@@H]3CCCNC3)c12` [Example 855, N-(5-chloro-8-methyl-1-isoquinolyl)-4-(1-methyltriazol-4-yl)-N-[(3R)-3-piperidyl]benzamide]: the IC50 came to 420 nM.
On the same count and under the same terms, to `Cc1nnc(-c2ccc(C(=O)N(c3nccc4c(Cl)ccc(C)c34)[C@@H]3CCCNC3)cc2)s1` [Example 856, N-(5-chloro-8-methyl-1-isoquinolyl)-4-(5-methyl-1,3,4-thiadiazol-2-yl)-N-[(3R)-3-piperidyl]benzamide] belongs 260 nM; to `Cc1nnc(-c2ccc(C(=O)N(c3nccc4c(Cl)ccc(C)c34)[C@@H]3CCCNC3)nc2)s1` [Example 857, N-(5-chloro-8-methyl-1-isoquinolyl)-5-(5-methyl-1,3,4-thiadiazol-2-yl)-N-[(3R)-3-piperidyl]pyridine-2-carboxamide], 480 nM.
Take `COc1cc(C)c2c(N(C(=O)c3ccc(-c4cn(C)nn4)cc3)[C@@H]3CCCNC3)nccc2c1` [Example 858, N-(6-methoxy-8-methyl-1-isoquinolyl)-4-(1-methyltriazol-4-yl)-N-[(3R)-3-piperidyl]benzamide]: the IC50 turned out to be 55 nM.
The same measure, in the same setting: to `CCn1cc(-c2ccc(C(=O)N(c3nccc4scc(C)c34)[C@@H]3CCCNC3)cc2)nn1` [Example 859, 4-(1-ethyltriazol-4-yl)-N-(3-methylthieno[3,2-c]pyridin-4-yl)-N-[(3R)-3-piperidyl] benzamide] belongs 100 nM.
Same read-out and setting: the value for `COc1cc(C)c2c(N(C(=O)c3ccc(-c4nnc(C)s4)cc3F)[C@@H]3CCCNC3)nccc2c1` [Example 860, 2-fluoro-N-(6-methoxy-8-methyl-1-isoquinolyl)-4-(5-methyl-1,3,4-thiadiazol-2-yl)-N-[(3R)-3-piperidyl]benzamide] was 48 nM; that for `Cc1ccc(C)c2c(N(C(=O)c3ccc(-c4cn(C)nn4)cc3)[C@@H]3CCCNC3)nccc12` [Example 861, N-(5,8-dimethyl-1-isoquinolyl)-4-(1-methyltriazol-4-yl)-N-[(3R)-3-piperidyl]benzamide] was 620 nM; that for `Cc1cc(F)c(F)c2ccnc(N(C(=O)c3ccc(-c4cn(C)nn4)cc3)[C@@H]3CCCNC3)c12` [Example 862, N-(5,6-difluoro-8-methyl-1-isoquinolyl)-4-(1-methyltriazol-4-yl)-N-[(3R)-3-piperidyl]benzamide] was 220 nM.
As for `CCn1cc(-c2ccc(C(=O)N(c3nccc4cc(OC)cc(C)c34)[C@@H]3CCCNC3)c(F)c2)nn1` [Example 863, 4-(1-ethyltriazol-4-yl)-2-fluoro-N-(6-methoxy-8-methyl-1-isoquinolyl)-N-[(3R)-3-piperidyl] benzamide], the IC50 is 29 nM.
On the same count and under the same terms, to `COc1cc(C)c2c(N(C(=O)c3ccc(-c4nnc(C)s4)cn3)[C@@H]3CCCNC3)nccc2c1` [Example 864, N-(6-methoxy-8-methyl-1-isoquinolyl)-5-(5-methyl-1,3,4-thiadiazol-2-yl)-N-[(3R)-3-piperidyl]pyridine-2-carboxamide] belongs 130 nM; to `CCOc1cc(C)c2c(N(C(=O)c3ccc(-c4nnc(C)s4)cn3)[C@@H]3CCCNC3)nccc2c1` [Example 865, N-(6-ethoxy-8-methyl-1-isoquinolyl)-5-(5-methyl-1,3,4-thiadiazol-2-yl)-N-[(3R)-3-piperidyl]pyridine-2-carboxamide], 150 nM; to `COc1cc(C)c2c(N(C(=O)c3ccc(-c4nnc(C)s4)cc3)[C@@H]3CCCNC3)nccc2c1` [Example 866, N-(6-methoxy-8-methyl-1-isoquinolyl)-4-(5-methyl-1,3,4-thiadiazol-2-yl)-N-[(3R)-3-piperidyl]benzamide], 52 nM.
Consider `COc1ccc2c(N(C(=O)c3ccc(-c4nnc(C)s4)cn3)[C@@H]3CCCNC3)nccc2c1F` [Example 867, N-(5-fluoro-6-methoxy-1-isoquinolyl)-5-(5-methyl-1,3,4-thiadiazol-2-yl)-N-[(3R)-3-piperidyl]pyridine-2-carboxamide], for which the IC50 was determined as 970 nM.
The same measure, in the same setting: the value for `COc1ccc2c(N(C(=O)c3ccc(-c4nnc(C)s4)cc3)[C@@H]3CCCNC3)nccc2c1F` [Example 868, N-(5-fluoro-6-methoxy-1-isoquinolyl)-4-(5-methyl-1,3,4-thiadiazol-2-yl)-N-[(3R)-3-piperidyl]benzamide] was 760 nM; that for `COc1ccc2c(N(C(=O)c3ccc(-c4cn(C)nn4)cc3)[C@@H]3CCCNC3)nccc2c1Cl` [Example 869, N-(5-chloro-6-methoxy-1-isoquinolyl)-4-(1-methyltriazol-4-yl)-N-[(3R)-3-piperidyl]benzamide] was 1400 nM.
Regarding `COc1ccc(C)c2c(N(C(=O)c3ccc(-c4nnc(C)s4)cn3)[C@@H]3CCCNC3)nccc12` [Example 870, N-(5-methoxy-8-methyl-1-isoquinolyl)-5-(5-methyl-1,3,4-thiadiazol-2-yl)-N-[(3R)-3-piperidyl]pyridine-2-carboxamide], the half-maximal inhibitory concentration (IC50) turned out to be 1900 nM.
